Assay results published in US12187746B2, “C26-linked rapamycin analogs as mTOR inhibitors” (Revolution Medicines, Inc., priority 2018, dated 2025).

Tests used:
[1] = test system: P-P70S6K (T389); experiment: Cell based AlphaLISA assay, inhibition of P-P70S6K (T389) in MDA-MB-468 cells; conditions: Homo sapiens, 4 h, 0.017-1,000 nM, two to four hours at 37° C., AlphaLisa SureFire Ultra, read-out: pIC50 for Inhibition of mTORC1 and mTORC2 Substrate Phosphorylation, p-P70S6K-(T389) (converted)
Experimental: (§1) Cell Based AlphaLISA Assays For Determining IC50 For Inhibition of P-Akt (S473), P-4E-BP1 (T37/46), and P-P70S6K (T389) in MDA-MB-468 Cells
(§2) mTOR Kinase Cellular Assay
(§3) To measure functional activity of mTORC1 and mTORC2 in cells the phosphorylation of 4EBP1 (Thr37/46) and P70S6K (Thr389), and AKT1/2/3 (Ser473) was monitored using AlphaLisa SureFire Ultra Kits (Perkin Elmer). […] Incubations are terminated by removal of the assay buffer and addition of lysis buffer provided with the assay kit. Samples are processed according to the manufacturer's instructions. The Alpha signal from the respective phosphoproteins is measured in duplicate using a microplate reader (Envision, Perkin-Elmer or Spectramax M5, Molecular Devices). Inhibitor concentration response curves are analyzed using normalized IC50 regression curve fitting with control based normalization.

[2] = test system: P-4E-BP1 (T37/46); experiment: Cell based AlphaLISA assay, inhibition of P-4E-BP1 (T37/46) in MDA-MB-468 cells; conditions: Homo sapiens, 4 h, 0.017-1,000 nM, two to four hours at 37° C., AlphaLisa SureFire Ultra, read-out: pIC50 for Inhibition of mTORC1 and mTORC2 Substrate Phosphorylation, p-4E-BP1-(T37/46) (converted)
Experimental: as §1, §2, §3

[3] = test system: P-Akt (S473); experiment: Cell based AlphaLISA assay, inhibition of P-Akt (S473) in MDA-MB-468 cells; conditions: Homo sapiens, 4 h, 0.017-1,000 nM, two to four hours at 37° C., AlphaLisa SureFire Ultra, read-out: pIC50 for Inhibition of mTORC1 and mTORC2 Substrate Phosphorylation, p-AKT1/2/3-(S473) (converted)
Experimental: as §1, §2, §3

| Structure (SMILES) | IC50 [1] | IC50 [2] | IC50 [3] |
| --- | --- | --- | --- |
| CO[C@H]1C[C@@H]2CC[C@@H](C)[C@@](O)(O2)C(=O)C(=O)N2CCCC[C@H]2C(=O)O[C@H]([C@H](C)C[C@@H]2CC[C@@H](O)[C@H](OC)C2)C[C@@H](O)[C@H](C)/C=C(\C)[C@@H](O)[C@@H](OC)C(=NOCC(=O)NCc2cnc(N3CCN(C(=O)CCOCCN4CCN(c5ncc(C(=O)NCCCCn6nc(-c7ccc8oc(N)nc8c7)c7c(N)ncnc76)cn5)CC4)CC3)nc2)[C@H](C)C[C@H](C)/C=C/C=C/C=C/1C [Example 29] | 1 to 10 nM | 3.16 to 31.6 nM | 31.6 to 1000 nM |
| CO[C@H]1C[C@@H]2CC[C@@H](C)[C@@](O)(O2)C(=O)C(=O)N2CCCC[C@H]2C(=O)O[C@H]([C@H](C)C[C@@H]2CC[C@@H](O)[C@H](OC)C2)C[C@@H](O)[C@H](C)/C=C(\C)[C@@H](O)[C@@H](OC)C(=NOCC(=O)NCCOCCOCCOCCOCCOCCOCCOCCOCCC(=O)NCCCCn2nc(-c3ccc4oc(N)nc4c3)c3c(N)ncnc32)[C@H](C)C[C@H](C)/C=C/C=C/C=C/1C [Example 1] | 1 to 10 nM | 3.16 to 31.6 nM | 31.6 to 1000 nM |
| COc1ccc(-c2ccc3ncc4c(c3c2)n(-c2ccc(N3CCN(c5ncc(CNC(=O)CCOCCOCCOCCOCCOCCOCCNC(=O)CON=C6[C@H](C)C[C@H](C)/C=C/C=C/C=C(\C)[C@@H](OC)C[C@@H]7CC[C@@H](C)[C@@](O)(O7)C(=O)C(=O)N7CCCC[C@H]7C(=O)O[C@H]([C@H](C)C[C@@H]7CC[C@@H](O)[C@H](OC)C7)C[C@@H](O)[C@H](C)/C=C(\C)[C@@H](O)[C@H]6OC)cn5)CC3)c(C(F)(F)F)c2)c(=O)n4C)cn1 [Example 14] | < 1 nM | 3.16 to 31.6 nM | 31.6 to 1000 nM |
| CO[C@H]1C[C@@H]2CC[C@@H](C)[C@@](O)(O2)C(=O)C(=O)N2CCCC[C@H]2C(=O)O[C@H]([C@H](C)C[C@@H]2CC[C@@H](O)[C@H](OC)C2)C[C@@H](O)[C@H](C)/C=C(\C)[C@@H](O)[C@@H](OC)C(=NOCC(=O)N2CCc3nc(N4CCN(c5ncc(C(=O)NCCOCCC(=O)N6CCc7cc(Cn8nc(-c9ccc%10oc(N)nc%10c9)c9c(N)ncnc98)ccc7C6)cn5)CC4)ncc3C2)[C@H](C)CC(C)/C=C/C=C/C=C/1C (stereo partly drawn) [Example 18] | 1 to 10 nM | 3.16 to 31.6 nM | > 1000 nM |
| CO[C@H]1C[C@@H]2CC[C@@H](C)[C@@](O)(O2)C(=O)C(=O)N2CCCC[C@H]2C(=O)O[C@H]([C@H](C)C[C@@H]2CC[C@@H](O)[C@H](OC)C2)CC(=O)[C@H](C)/C=C(\C)[C@@H](O)[C@@H](OC)C(=O)[C@H](C)C[C@H](C)/C=C/C=C/C=C/1C [Rapamycin, (3S,6R,7E,9R, 10R, 12R, 14S, 15E, 17E, 19E,21S,23S,26R,27R,34aS)-9, 10, 12, 13, 14,21,22,23,24,25,26,27,32,33,34,34a-hexadecahydro-9,27-dihydroxy-3-[(1R)-2-[(1 S,3 R,4R)-4-hydroxy-3-methoxycyclohexyl]-1-methylethyl]-10,21-dimethoxy-6,8,12,14,20,26-hexamethyl-23,27-epoxy-3H-pyrido[2,1-c][1,4]-oxaazacyclohentriacontine-1,5,11,28,29(4H,6H,31H)-pentone] | < 1 nM | > 1000 nM | > 1000 nM |
| CO[C@H]1C[C@@H]2CC[C@@H](C)[C@@](O)(O2)C(=O)C(=O)N2CCCC[C@H]2C(=O)O[C@H]([C@H](C)C[C@@H]2CC[C@@H](O)[C@H](OC)C2)C[C@@H](O)[C@H](C)/C=C(\C)[C@@H](O)[C@@H](OC)C(=NOCC(=O)NCCOCCOCCOCCOCCOCCOCCC(=O)N2CCc3cc(Cn4nc(-c5ccc6oc(N)nc6c5)c5c(N)ncnc54)ccc3C2)[C@H](C)C[C@H](C)/C=C/C=C/C=C/1C [Example 5] | < 1 nM | < 3.16 nM | 31.6 to 1000 nM |
| CC(C)n1nc(-c2ccc3oc(N)nc3c2)c2c(N)ncnc21 [MLN-128, MLN0128, reference compound] | 1 to 10 nM | 3.16 to 31.6 nM | 3.16 to 31.6 nM |
| CO[C@H]1C[C@@H]2CC[C@@H](C)[C@@](O)(O2)C(=O)C(=O)N2CCCC[C@H]2C(=O)O[C@H]([C@H](C)C[C@@H]2CC[C@@H](O)[C@H](OC)C2)C[C@@H](O)[C@H](C)/C=C(\C)[C@@H](O)[C@@H](OC)C(=NOCC(=O)NCc2cnc(N3CCN(C(=O)CN(C)CC(=O)NCCOCCOCCC(=O)N4CCc5cc(Cn6nc(-c7ccc8oc(N)nc8c7)c7c(N)ncnc76)ccc5C4)CC3)nc2)[C@H](C)C[C@H](C)/C=C/C=C/C=C/1C [Example 25] | 1 to 10 nM | 31.6 to 1000 nM | > 1000 nM |
| CO[C@H]1C[C@@H]2CC[C@@H](C)[C@@](O)(O2)C(=O)C(=O)N2CCCC[C@H]2C(=O)O[C@H]([C@H](C)C[C@@H]2CC[C@@H](O)[C@H](OC)C2)C[C@@H](O)[C@H](C)/C=C(\C)[C@@H](O)[C@@H](OC)C(=NOCC(=O)NCc2cnc(N3CCN(c4ncc(C(=O)NCCOCCC(=O)N5CCc6cc(Cn7nc(-c8ccc9oc(N)nc9c8)c8c(N)ncnc87)ccc6C5)c(N)n4)CC3)nc2)[C@H](C)C[C@H](C)/C=C/C=C/C=C/1C [Example 50] | 10 to 1000 nM | > 1000 nM | > 1000 nM |
| CO[C@H]1C[C@@H]2CC[C@@H](C)[C@@](O)(O2)C(=O)C(=O)N2CCCC[C@H]2C(=O)O[C@H]([C@H](C)C[C@@H]2CC[C@@H](O)[C@H](OC)C2)C[C@@H](O)[C@H](C)/C=C(\C)[C@@H](O)[C@@H](OC)C(=NOCC(=O)NCCOCCC(=O)NCc2cnc(N3CCN(C(=O)CCOCCN4CCN(c5ncc(C(=O)N6CCc7cc(Cn8nc(-c9ccc%10oc(N)nc%10c9)c9c(N)ncnc98)ccc7C6)cn5)CC4)CC3)nc2)[C@H](C)C[C@H](C)/C=C/C=C/C=C/1C [Example 44] | < 1 nM | 3.16 to 31.6 nM | 31.6 to 1000 nM |
| CO[C@H]1C[C@@H]2CC[C@@H](C)[C@@](O)(O2)C(=O)C(=O)N2CCCC[C@H]2C(=O)O[C@H]([C@H](C)C[C@@H]2CC[C@@H](O)[C@H](OC)C2)C[C@@H](O)[C@H](C)/C=C(\C)[C@@H](O)[C@@H](OC)C(=NOCC(=O)NCCOCCOCCOCCOCCOCCOCCC(=O)NC2CCN(CC(=O)N3CCc4cc(Cn5nc(-c6ccc7oc(N)nc7c6)c6c(N)ncnc65)ccc4C3)CC2)[C@H](C)C[C@H](C)/C=C/C=C/C=C/1C [Example 69] | 1 to 10 nM | 3.16 to 31.6 nM | > 1000 nM |
| CO[C@H]1C[C@@H]2CC[C@@H](C)[C@@](O)(O2)C(=O)C(=O)N2CCCC[C@H]2C(=O)O[C@H]([C@H](C)C[C@@H]2CC[C@@H](O)[C@H](OC)C2)C[C@@H](O)[C@H](C)/C=C(\C)[C@@H](O)[C@@H](OC)C(=NOCC(=O)NCCOCCOCCOCCOCCOCCOCCC(=O)NCCCCn2nc(-c3cnc4[nH]ccc4c3)c3c(N)ncnc32)[C@H](C)C[C@H](C)/C=C/C=C/C=C/1C [Example 7] | < 1 nM | 3.16 to 31.6 nM | > 1000 nM |
| CO[C@H]1C[C@@H]2CC[C@@H](C)[C@@](O)(O2)C(=O)C(=O)N2CCCC[C@H]2C(=O)O[C@H]([C@H](C)C[C@@H]2CC[C@@H](O)[C@H](OC)C2)C[C@@H](O)[C@H](C)/C=C(\C)[C@@H](O)[C@@H](OC)C(=NOCC(=O)NCc2cnc(N3CCN(c4ncc(C(=O)NCCOCCOCCOCCC(=O)N5CCc6cc(Cn7nc(-c8cnc9[nH]ccc9c8)c8c(N)ncnc87)ccc6C5)cn4)CC3)nc2)[C@H](C)C[C@H](C)/C=C/C=C/C=C/1C [Example 21] | 1 to 10 nM | 3.16 to 31.6 nM | > 1000 nM |
